Experimental data taken from ChEMBL document CHEMBL3232730, “Design, synthesis and bioevaluation of N-trisubstituted pyrimidine derivatives as potent aurora A kinase inhibitors” (Eur J Med Chem, 2014).

How the values were obtained:
U-937 = test: Antiproliferative activity against human U937 cells assessed as cell viability after 72 hrs by CCK8 assay; format: functional, cell-based; conditions: Homo sapiens, U-937, 72 h; read-out: IC50
HL-60 = test: Antiproliferative activity against human HL60 cells assessed as cell viability after 72 hrs by CCK8 assay; format: functional, cell-based; conditions: Homo sapiens, HL-60, 72 h; read-out: IC50
[1] = Cell cycle arrest in human CNE2 cells assessed as accumulation at polyploid period at 0.01 uM after 24 hrs by propidium iodide staining-based flow cytometric analysis (reference value: […]); format: functional; conditions: CNE-2
DU-145 = test: Antiproliferative activity against human DU145 cells assessed as cell viability after 72 hrs by CCK8 assay; format: functional, cell-based; conditions: Homo sapiens, DU-145, 72 h; read-out: IC50
[2] = Cell cycle arrest in human CNE2 cells assessed as accumulation at G1 phase at 0.01 uM after 24 hrs by propidium iodide staining-based flow cytometric analysis (reference value: 52.5%); format: functional; conditions: CNE-2
[3] = Cell cycle arrest in human CNE2 cells assessed as accumulation at G1 phase at 0.1 uM after 24 hrs by propidium iodide staining-based flow cytometric analysis (reference value: […]); format: functional; conditions: CNE-2
[4] = Antiproliferative activity against human PANC1 cells assessed as cell viability after 72 hrs by CCK8 assay; format: functional, cell-based; conditions: PANC-1, 72 h
HCT-116 = test: Antiproliferative activity against human HCT116 cells assessed as cell viability after 72 hrs by CCK8 assay; format: functional, cell-based; conditions: Homo sapiens, HCT-116, 72 h; read-out: IC50
NCI-N87 = test: Antiproliferative activity against human NCI-N87 cells assessed as cell viability after 72 hrs by CCK8 assay; format: functional, cell-based; conditions: Homo sapiens, NCI-N87, 72 h; read-out: IC50
[5] = Antiproliferative activity against human SKBR3 cells assessed as cell viability after 72 hrs by CCK8 assay; format: functional, cell-based, SK-BR-3; conditions: Homo sapiens, SK-BR-3, 72 h; read-out: IC50
[6] = Cell cycle arrest in human CNE2 cells assessed as accumulation at S phase at 0.01 uM after 24 hrs by propidium iodide staining-based flow cytometric analysis (reference value: 14.9%); format: functional; conditions: CNE-2
[7] = Cell cycle arrest in human CNE2 cells assessed as accumulation at G2/M phase at 0.01 uM after 24 hrs by propidium iodide staining-based flow cytometric analysis (reference value: 31%); format: functional; conditions: CNE-2
[8] = Cell cycle arrest in human CNE2 cells assessed as accumulation at G2/M phase at 0.1 uM after 24 hrs by propidium iodide staining-based flow cytometric analysis (reference value: 24.5%); format: functional; conditions: CNE-2
K562 = test: Antiproliferative activity against human K562 cells assessed as cell viability after 72 hrs by CCK8 assay; format: functional, cell-based; conditions: Homo sapiens, K562, 72 h; read-out: IC50
A-431 = test: Antiproliferative activity against human A431 cells assessed as cell viability after 72 hrs by CCK8 assay; format: functional, cell-based; conditions: Homo sapiens, A-431, 72 h; read-out: IC50
[9] = Antiproliferative activity against human MOLT4 cells assessed as cell viability after 72 hrs by CCK8 assay; format: functional, cell-based, MOLT-4; conditions: Homo sapiens, MOLT-4, 72 h; read-out: IC50
A549 = test: Antiproliferative activity against human A549 cells assessed as cell viability after 72 hrs by CCK8 assay; format: functional, cell-based; conditions: A549, 72 h
[10] = Cell cycle arrest in human CNE2 cells assessed as accumulation at polyploid period at 0.1 uM after 24 hrs by propidium iodide staining-based flow cytometric analysis (reference value: […]%); format: functional; conditions: CNE-2
[11] = Cell cycle arrest in human CNE2 cells assessed as accumulation at G1 phase at 1 uM after 24 hrs by propidium iodide staining-based flow cytometric analysis (reference value: 52.5%); format: functional; conditions: CNE-2
MDA-MB-231 = test: Antiproliferative activity against human MDA-MB-231 cells assessed as cell viability after 72 hrs by CCK8 assay; format: functional, cell-based; conditions: Homo sapiens, MDA-MB-231, 72 h; read-out: IC50
[12] = Cell cycle arrest in human CNE2 cells assessed as accumulation at G2/M phase at 1 uM after 24 hrs by propidium iodide staining-based flow cytometric analysis (reference value: 38.2%); format: functional; conditions: CNE-2
[13] = Cell cycle arrest in human CNE2 cells assessed as accumulation at S phase at 1 uM after 24 hrs by propidium iodide staining-based flow cytometric analysis (reference value: 14.7%); format: functional; conditions: CNE-2
Aurora kinase A = molecular target: T1, Aurora kinase A (Homo sapiens, UniProt O14965); test: Inhibition of Aurora A (unknown origin) using FAM-labeled peptide as substrate preincubated for 10 mins followed by substrate addition measured after 60 mins
T1 sequence (O14965 whole entry): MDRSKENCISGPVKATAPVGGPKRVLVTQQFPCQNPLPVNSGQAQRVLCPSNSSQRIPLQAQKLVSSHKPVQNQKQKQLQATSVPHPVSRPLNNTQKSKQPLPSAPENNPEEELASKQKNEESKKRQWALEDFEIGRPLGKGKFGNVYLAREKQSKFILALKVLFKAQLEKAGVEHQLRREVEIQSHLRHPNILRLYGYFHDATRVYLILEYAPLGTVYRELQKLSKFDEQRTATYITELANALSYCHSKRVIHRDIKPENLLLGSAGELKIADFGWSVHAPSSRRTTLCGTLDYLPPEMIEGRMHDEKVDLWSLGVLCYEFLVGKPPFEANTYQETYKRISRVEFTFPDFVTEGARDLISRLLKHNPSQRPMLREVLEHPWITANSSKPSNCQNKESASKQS

HeLa = test: Antiproliferative activity against human HeLa cells assessed as cell viability after 72 hrs by CCK8 assay; format: functional, cell-based; conditions: Homo sapiens, HeLa, 72 h; read-out: IC50
PC-3 = test: Antiproliferative activity against human PC3 cells assessed as cell viability after 72 hrs by CCK8 assay; format: functional, cell-based; conditions: Homo sapiens, PC-3, 72 h; read-out: IC50
[14] = Cell cycle arrest in human CNE2 cells assessed as accumulation at G2/M phase after 24 hrs by propidium iodide staining-based flow cytometric analysis; format: functional; conditions: CNE-2
MCF7 = test: Antiproliferative activity against human MCF7 cells assessed as cell viability after 72 hrs by CCK8 assay; format: functional, cell-based; conditions: Homo sapiens, MCF7, 72 h; read-out: IC50
[15] = Cell cycle arrest in human CNE2 cells assessed as accumulation at S phase at 0.1 uM after 24 hrs by propidium iodide staining-based flow cytometric analysis (reference value: 13.1%); format: functional; conditions: CNE-2
[16] = Cell cycle arrest in human CNE2 cells assessed as accumulation at polyploid period at 1 uM after 24 hrs by propidium iodide staining-based flow cytometric analysis (reference value: […]); format: functional; conditions: CNE-2

COc1cccc(Nc2nc(Nc3cc(C)[nH]n3)cc(N3CCN(C)CC3)n2)c1 showed an IC50 (U-937) of 0.126 µM, an IC50 (HL-60) of 0.397 µM and an Activity [1] of 4.6%. It also gave an IC50 (DU-145) of 2.65 µM, an Activity [2] of 61.7% and an Activity [3] of 57.2%. For the same molecule, the IC50 [4] was 0.693 µM, the IC50 (HCT-116) was 0.923 µM and the IC50 (NCI-N87) was 7.19 µM. For the same molecule, the IC50 [5] was 11.3 µM, the Activity [6] was 8.1% and the Activity [7] was 26.1%. The Activity [8] was 32.2%, the IC50 (K562) was 0.509 µM and the IC50 (A-431) was 0.332 µM. The IC50 [9] was 0.192 µM, the IC50 (A549) was 1.69 µM and the Activity [10] was 4%. It also gave an Activity [11] of 3.2%, an IC50 (MDA-MB-231) of 0.24 µM and an Activity [12] of 92.5%. The Activity [13] was 1.7%, the IC50 (Aurora kinase A) was 0.022 µM and the IC50 (HeLa) was 0.546 µM. The IC50 (PC-3) was 1.08 µM, the Activity [14] was “Dose-dependent effect” and the IC50 (MCF7) was 0.933 µM. For the same molecule, the Activity [15] was 6.9% and the Activity [16] was 2.4%.
